The source made the active and inactive calls.
What was measured:
Format in all cases: functional, cell-based
CCRF-CEM = test: Growth inhibition of human CCRF-CEM cells at 10 uM after 48 hrs by sulforhodamine B assay
HL-60(TB) = test: Growth inhibition of human HL-60(TB) cells at 10 uM after 48 hrs by sulforhodamine B assay
K562 = test: Growth inhibition of human K562 cells at 10 uM after 48 hrs by sulforhodamine B assay
MOLT-4 = test: Growth inhibition of human MOLT4 cells at 10 uM after 48 hrs by sulforhodamine B assay
RPMI-8226 = test: Growth inhibition of human RPMI8226 cells at 10 uM after 48 hrs by sulforhodamine B assay
SR = test: Growth inhibition of human SR cells at 10 uM after 48 hrs by sulforhodamine B assay
A549 = test: Growth inhibition of human A549/ATCC cells at 10 uM after 48 hrs by sulforhodamine B assay
EKVX = test: Growth inhibition of human EKVX cells at 10 uM after 48 hrs by sulforhodamine B assay
HOP-62 = test: Growth inhibition of human HOP62 cells at 10 uM after 48 hrs by sulforhodamine B assay
HOP-92 = test: Growth inhibition of human HOP92 cells at 10 uM after 48 hrs by sulforhodamine B assay
NCI-H226 = test: Growth inhibition of human NCI-H226 cells at 10 uM after 48 hrs by sulforhodamine B assay
NCI-H23 = test: Growth inhibition of human NCI-H23 cells at 10 uM after 48 hrs by sulforhodamine B assay
NCI-H322M = test: Growth inhibition of human NCI-H322M cells at 10 uM after 48 hrs by sulforhodamine B assay
NCI-H460 = test: Growth inhibition of human NCI-H460 cells at 10 uM after 48 hrs by sulforhodamine B assay
NCI-H522 = test: Growth inhibition of human NCI-H522 cells at 10 uM after 48 hrs by sulforhodamine B assay
COLO 205 = test: Growth inhibition of human COLO205 cells at 10 uM after 48 hrs by sulforhodamine B assay
HCC 2998 = test: Growth inhibition of human HCC2998 cells at 10 uM after 48 hrs by sulforhodamine B assay
HCT-116 = test: Growth inhibition of human HCT116 cells at 10 uM after 48 hrs by sulforhodamine B assay
HCT-15 = test: Growth inhibition of human HCT15 cells at 10 uM after 48 hrs by sulforhodamine B assay
HT-29 = test: Growth inhibition of human HT-29 cells at 10 uM after 48 hrs by sulforhodamine B assay
KM12 = test: Growth inhibition of human KM12 cells at 10 uM after 48 hrs by sulforhodamine B assay
SW-620 = test: Growth inhibition of human SW620 cells at 10 uM after 48 hrs by sulforhodamine B assay
SF-268 = test: Growth inhibition of human SF268 cells at 10 uM after 48 hrs by sulforhodamine B assay
SF-295 = test: Growth inhibition of human SF295 cells at 10 uM after 48 hrs by sulforhodamine B assay
SF-539 = test: Growth inhibition of human SF539 cells at 10 uM after 48 hrs by sulforhodamine B assay
SNB-19 = test: Growth inhibition of human SNB19 cells at 10 uM after 48 hrs by sulforhodamine B assay
SNB-75 = test: Growth inhibition of human SNB75 cells at 10 uM after 48 hrs by sulforhodamine B assay
U-251 = test: Growth inhibition of human U251 cells at 10 uM after 48 hrs by sulforhodamine B assay
LOX IMVI = test: Growth inhibition of human LOXIMVI cells at 10 uM after 48 hrs by sulforhodamine B assay
Malme-3M = test: Growth inhibition of human MALME-3M cells at 10 uM after 48 hrs by sulforhodamine B assay
M14 = test: Growth inhibition of human M14 cells at 10 uM after 48 hrs by sulforhodamine B assay
MDA-MB-435 = test: Growth inhibition of human MDA-MB-435 cells at 10 uM after 48 hrs by sulforhodamine B assay
SK-MEL-2 = test: Growth inhibition of human SK-MEL-2 cells at 10 uM after 48 hrs by sulforhodamine B assay
SK-MEL-28 = test: Growth inhibition of human SK-MEL-28 cells at 10 uM after 48 hrs by sulforhodamine B assay
SK-MEL-5 = test: Growth inhibition of human SK-MEL-5 cells at 10 uM after 48 hrs by sulforhodamine B assay
UACC-62 = test: Growth inhibition of human UACC62 cells at 10 uM after 48 hrs by sulforhodamine B assay
IGROV-1 = test: Growth inhibition of human IGROV1 cells at 10 uM after 48 hrs by sulforhodamine B assay
OVCAR-3 = test: Growth inhibition of human OVCAR3 cells at 10 uM after 48 hrs by sulforhodamine B assay
OVCAR-4 = test: Growth inhibition of human OVCAR4 cells at 10 uM after 48 hrs by sulforhodamine B assay
OVCAR-5 = test: Growth inhibition of human OVCAR5 cells at 10 uM after 48 hrs by sulforhodamine B assay
OVCAR-8 = test: Growth inhibition of human OVCAR8 cells at 10 uM after 48 hrs by sulforhodamine B assay
NCI/ADR-RES = test: Growth inhibition of human NCI-ADR-RES cells at 10 uM after 48 hrs by sulforhodamine B assay
SK-OV-3 = test: Growth inhibition of human SKOV3 cells at 10 uM after 48 hrs by sulforhodamine B assay
786-0 = test: Growth inhibition of human 786-0 cells at 10 uM after 48 hrs by sulforhodamine B assay
A498 = test: Growth inhibition of human A498 cells at 10 uM after 48 hrs by sulforhodamine B assay
ACHN = test: Growth inhibition of human ACHN cells at 10 uM after 48 hrs by sulforhodamine B assay
CAKI-1 = test: Growth inhibition of human CAKI-1 cells at 10 uM after 48 hrs by sulforhodamine B assay
RXF 393 = test: Growth inhibition of human RXF393 cells at 10 uM after 48 hrs by sulforhodamine B assay
SN12C = test: Growth inhibition of human SN12C cells at 10 uM after 48 hrs by sulforhodamine B assay
TK-10 = test: Growth inhibition of human TK10 cells at 10 uM after 48 hrs by sulforhodamine B assay
UO-31 = test: Growth inhibition of human UO31 cells at 10 uM after 48 hrs by sulforhodamine B assay
PC-3 = test: Growth inhibition of human PC3 cells at 10 uM after 48 hrs by sulforhodamine B assay
DU-145 = test: Growth inhibition of human DU145 cells at 10 uM after 48 hrs by sulforhodamine B assay
MCF7 = test: Growth inhibition of human MCF7 cells at 10 uM after 48 hrs by sulforhodamine B assay
MDA-MB-231 = test: Growth inhibition of human MDA-MB-231 cells at 10 uM after 48 hrs by sulforhodamine B assay
Hs-578T = test: Growth inhibition of human Hs 578T cells at 10 uM after 48 hrs by sulforhodamine B assay
BT-549 = test: Growth inhibition of human BT549 cells at 10 uM after 48 hrs by sulforhodamine B assay
T47D = test: Growth inhibition of human T47D cells at 10 uM after 48 hrs by sulforhodamine B assay
MDA-MB-468 = test: Growth inhibition of human MDA-MB-468 cells at 10 uM after 48 hrs by sulforhodamine B assay

Measured: growth inhibition (GI)

O=C1/C(=C\c2cccn2Cc2ccc(Cl)cc2)c2ccccc2N1c1c(Cl)cccc1Cl
inactive: all assays above

O=C1/C(=C\c2cccn2C(=O)c2ccccc2)c2ccccc2N1c1c(Cl)cccc1Cl
inactive: all assays above

From ChEMBL document CHEMBL4177730, “Rational modification of semaxanib and sunitinib for developing a tumor growth inhibitor targeting ATP binding site of tyrosine kinase” (2018)
